According to patent US9155784B2, “Anti-TNF-α therapy for the mucopolysaccharidoses and other lysosomal disorders” (Icahn School of Medicine at Mount Sinai, priority 2011, dated 2015):

What was measured:
MPS VI rats [1] = assay: Skull and snout appearance, radiographs and microCT in PPS treated MPS VI rats; format: in vivo, rat
Experimental: FIGS. 6A-6D show results of MPS VI rats treated with PPS. MPS VI rats were maintained on normal watering (FIG. 6A) or with water containing 25 mg/day PPS (n=6/group) (FIG. 6B). Animals were 6 months of age when treatment began, and treatment was carried out for 3 months. Skull and snout images were taken at the end of treatment. Representative images are shown. Skull length and width measurements also were determined from the radiographs for each of the animals, and the data are shown in the bar graph (FIGS. 6C, 6D). White=normal 9 month old, Gray=MPS VI rats on normal water; Blue=MPS VI rats receiving PPS. *=p<0.01.
FIGS. 7A-7F show skull radiographs (FIGS. 7A, 7B, 7C) and microCT images (FIGS. 7D, 7E, 7F) of normal rats (FIGS. 7A, 7D), MPS VI rats with PPS treatment (FIGS. 7C, 7F), and MPS VI rats without PPS treatment (FIGS. 7B, 7E). MPS VI rats were maintained on normal watering or with water containing 25 mg/day PPS (n=6/group). Animals were 6 months of age when treatment was begun, and treatment was carried out for 3 months. The top images show radiographs (FIGS. 7A, 7B, 7C), and the bottom images microCT images (FIGS. 7D, 7E, 7F). Longer snouts and thinner skulls were found in the MPS VI rats treated with PPS compared to untreated MPS VI. The lines in the radiographs are for reference. The quantitative data shown in FIGS. 6A-6D on skull length and width were measured from these radiographs.
In order to develop “proof-of-principle” data, six MPS VI rats at 6 months of age were treated with PPS for 3 months. 6-month-old MPS VI rats have established bone, cartilage, and inflammatory disease, and the specific goal in this initial study was therefore to evaluate whether PPS could either slow or reverse any of the clinical or pathological findings in MPS animals with advanced disease. […] As illustrated by FIGS. 7A-7F skull radiographs and microCT images were taken of normal rats (FIGS. 7A, 7D), MPS VI rats with PPS treatment (FIGS. 7C, 7F), and MPS VI rats without PPS treatment (FIGS. 7B, 7E). […] The images shown are representative of the general observations on these animals.

MPS VI rats [2] = assay: MicroCT of dentition in PPS treated MPS VI rats; format: in vivo, rat; details: PPS 25 mg/day, start at 6 months of age, 3 months
Experimental: FIGS. 8A-8F show microCT images of normal rats (FIGS. 8A, 8B) MPS VI rats with PPS treatment (FIGS. 8E, 8F) and without PPS treatment (FIGS. 8C, 8D) showing dentition changes. MPS VI rats were maintained on normal watering or with water containing 25 mg/day PPS (n=6/group). Animals were 6 months of age when treatment was begun, and treatment was carried out for 3 months. Untreated MPS VI rats have overgrown incisors (box) that leads to abnormal alignment of the teeth compared to normal rats. The mandible and misalignment were corrected by PPS treatment.
Untreated MPS VI rats have overgrown incisors (box) (FIGS. 8C, 8D) that leads to abnormal alignment of the teeth compared to normal rats. The mandible and misalignment were corrected by PPS treatment (FIGS. 8E, 8F).

MPS VI rats [3] = assay: Accelerating rotarod of PPS treated MPS VI rats; format: in vivo, rat
Experimental: FIG. 9 depicts rotarod analysis of MPS VI rats with and without PPS. Six-month-old MPS VI rats were maintained with or without PPS for 3 months (n=6/group), and prior to sacrifice were analyzed using an accelerating rotarod apparatus. Gray=MPS VI rats on normal water; Blue=MPS VI rats receiving PPS.
FIGS. 12A-12C show results of treatment of MPS VI rats at one month of age. In FIGS. 12A and 12B, one-month old MPS VI rats were maintained for eight months on normal water or with water containing 25 mg/day PPS (n=6/group). Representative images are shown. Arrows indicate ocular porphyrin secretions, wide broad skull and snout and small ears in the untreated, with marked improvement in the treated animal. In FIG. 12C, animals were tested on an accelerating rotarod apparatus. […] In addition, only normal and treated rats were able to remain on the rotating rod at speeds up to 35 RPM (60% of normal).
(§1) Immediately prior to sacrifice, the animals also were studied using an accelerating rotarod apparatus. […] It was hypothesized that this reflects either increased joint mobility and/or reduced inflammation and pain in the treatment group. […] Serum levels of inflammatory marker MIP-1α is shown in FIG. 11A, while levels of marker Rantes is show in FIG. 11B and levels of TNF-α are shown in FIG. 11C.

TNF-α = assay: Immunohistochemical analysis of TNF-α in liver and spleen of PPS treated MPS VI rats; format: in vivo, rat; details: PPS start at 6 months, 9-month-old animals, vs untreated
Text: (§2) FIGS. 10A-10B illustrate immunohistochemical analysis of PPS treated and untreated rats.
as §1

MIP-1α, Rantes, TNF-α = assay: Serum inflammatory markers by ELISA in PPS treated MPS VI rats; format: in vivo, rat
Experimental: as §2
FIGS. 11A-11C show serum inflammatory markers in treated and untreated MPS VI rats. Three groups of MPS VI rats were treated with PPS beginning at six months (light gray), one month (dark gray) or prenatally (black). All animals were sacrificed at 9 months of age. The duration of treatment was therefore 3 months, 8 months or 9.75 months, respectively. The serum levels of several inflammatory markers were measured by ELISA assays, and compared to normal (hatched) or untreated MPS VI animals (white). N=6/group. Serum levels of inflammatory marker MIP-1α is shown in FIG. 11A, while levels of marker Rantes is shown in FIG. 11B and levels of TNF-α are shown in FIG. 11C.
as §1

MPS VI rats [4] = assay: Tracheas of MPS VI rats treated with PPS; format: in vivo, rat; details: all PPS treatment groups (start 6 months, 1 month, prenatally), sacrificed at 9 months
Experimental: FIG. 13 illustrates tracheas of MPS VI rats treated with PPS. Groups 1, 2 and 3 animals were treated with PPS beginning at 6 months, 1 month, and prenatally. They were sacrificed at 9 months and the tracheas were isolated.

MPS VI rats [5] = assay: Spine disease: disc height index from sagittal radiographs, PPS treated MPS VI rats; format: in vivo, rat; details: PPS treatment of skeletally mature animals (6 months of age)
Experimental: FIGS. 14A-14C show an assessment of spine disease in the treated (6 month old) and untreated MPS VI rats.
Lastly, spine disease in the treated (6 month old) and untreated MPS VI rats was assessed. These studies have documented several important and clinically relevant endpoints that can be followed during PPS treatment. Histologically, MPS VI discs had abundant, enlarged vacuolated nuclear and annular cells as well as thickened annulus layers, focal defects in the nucleus pulposus, and increased disc height as compared to control discs (FIG. 14A). […] ADAMTS-5 is a proteoglycan-degrading aggrecanase that also is elevated in untreated MPS VI rat chondrocytes, but was reduced in the MPS VI treatment groups (FIG. 15).

articular chondrocytes = assay: Western blotting of articular chondrocytes from PPS treated MPS VI rats; format: in vivo, rat; details: western blot, PPS groups 1-3, sacrificed at 9 months
Experimental: Groups 1, 2 and 3 animals were treated with PPS beginning at 6 months, 1 month and prenatally. They were sacrificed at 9 months and articular chondrocytes were isolated and grown for 3 weeks. They were then analyzed by western blotting. […] ADAMTS-5 is a proteeoglycan-degrading aggrecanase that also is elevated in untreated MPS VI rat chondrocytes, and was reduced in the MPS VI treatment groups.

[6] = test system: Niemann-Pick disease mice (acid sphingomyelinase knock-out); assay: Rotarod analysis of Niemann-Pick disease mice treated with PPS; format: in vivo, mouse; details: 25 mg/kg/day for three months from one month of age; 20 RPM; p<0.01; remained below wild-type
Experimental: One-month-old Niemann-Pick disease mice (acid sphingomyelinase knock-out) were treated with PPS for three months beginning at one month of age (25 mg/kg/day). They were then analyzed using an accelerating rotarod apparatus set to 20 RPM.

[7] = PPS 25 mg/day in water, start at 6 months of age, 3 months, vs untreated MPS VI
[8] = all treatment groups (start 6 months, 1 month or prenatally), sacrificed at 9 months, vs untreated

For Pentosan polysulfate [PPS], the skull length (MPS VI rats [1]; [7]) was “significantly longer”, the skull width (MPS VI rats [1]; [7]) was “thinner” and the snout length (MPS VI rats [1]; [7]) was “significantly longer”. The “facial appearance, skull length, eye and nasal secretions, and motility” value (MPS VI rats [1]; PPS start at 1 month of age, 8 months) was “significant effect”, the ocular porphyrin secretions (MPS VI rats [1]; PPS start at 6 months of age, 3 months, vs untreated MPS VI) was “markedly fewer” and the “mandible and misalignment of the teeth” value (MPS VI rats [2]) was “corrected”. The “time on the rotating rod versus untreated” value (MPS VI rats [3]; PPS start at 1 month of age, 8 months, 20 RPM) was “more than twice as long”, the “rotarod performance at speeds up to 35 RPM” value (MPS VI rats [3]; PPS start at 1 month of age, 8 months, untreated unable to remain) was 60 % of normal and the “time on the rotating rod versus untreated” value (MPS VI rats [3]; PPS start at 6 months of age, 3 months, p<0.02) was “more than twice as long”. For the same substance, the “TNF-α expression in liver and spleen” value (TNF-α) was “decreased”, the “serum TNF levels” value (MIP-1α, Rantes, TNF-α; PPS start at 6 months, 9-month-old animals, vs untreated (FIG. 10B)) was “decreased” and the “serum MIP-1α level” value (MIP-1α, Rantes, TNF-α; [8]) was “significantly (<0.001) lower”. The “serum Rantes level” value (MIP-1α, Rantes, TNF-α; [8]) was “significantly (<0.001) lower”, the “serum TNF-α level” value (MIP-1α, Rantes, TNF-α; [8]) was “significantly (<0.001) lower” and the collapsed tracheas (MPS VI rats [4]) was “improved”. The “disc height index (DHI)” value (MPS VI rats [5]) was “did not influence”, the “ADAMTS-5 in articular chondrocytes” value (articular chondrocytes) was “reduced” and the “Cox-2 in articular chondrocytes” value (articular chondrocytes) was “reduced to normal”. For the same substance, the “TNF-α in articular chondrocytes” value (articular chondrocytes) was “reduced to normal”, the “p38 in articular chondrocytes” value (articular chondrocytes) was “reduced to normal” and the “rotarod performance versus untreated NPD mice” value [6] was “significantly better”.
